Earlier results on two compounds are cited in publication PMC5306265 (Investigational New Drugs, 2016).

The subject of data set [1] is BRAF V600E/K-mutant melanoma. Further details: method as in PMID 22663011, PMID 22805292. The settings on record: cited from earlier work.
The subject of a further data set is pERK. More on the design: method as in PMID 18390968, PMID 24178622. The settings on record: paired tumor biopsies; cited from earlier work.

Take `CC(=O)Nc1cccc(-n2c(=O)n(C3CC3)c(=O)c3c(Nc4ccc(I)cc4F)n(C)c(=O)c(C)c32)c1` [trametinib]: in data set [1], the response rates entry is listed as “approximately 20%”. On to `Cn1cnc2c(F)c(Nc3ccc(Br)cc3Cl)c(C(=O)NOCCO)cc21` [selumetinib], for which the “geometric mean pERK reduction” value in the data set with pERK is given as 79%.
